Reference: paper PMC4579270, “Identification and Characterization of an Irreversible Inhibitor of CDK2” (Chemistry & Biology, 2015)
“Also recorded” adds a separate entry of the source.

Key:
CDK2-Cyclin A = CDK2-Cyclin A (Homo sapiens, UniProt P24941); assay: Kinase assay against GST-Rb after overnight incubation and dialysis; assay type: biochemical; set-up: made in house; host or cells: Escherichia coli (CDK2 co-expressed with S. cerevisiae CAK1); settings: wild-type CDK2/cyclin A, overnight with 1 mM inhibitor, dialysed 8 h
Experimental: To confirm the results of the ESI-MS and SPR analysis, CDK2/cyclin A was incubated with either NU6300 or NU6310, then the samples and appropriate controls were dialyzed. The resulting CDK2/cyclin A activity was analyzed in an in vitro kinase assay against a C-terminal fragment of the retinoblastoma protein Rb. After an overnight incubation in the presence of NU6300, CDK2 activity was not recovered after dialysis (Figure 2C). […] The activity of NU6300 was also characterized in an alternative kinase assay format (ADP-Glo;^, Promega) in which covalent inhibition of CDK2/cyclin A was allowed to proceed in a pre-incubation phase and was assessed in a subsequent activity assay, where enzyme and inhibitor were diluted such that the inhibitor was present at 20-fold below its IC50 value. The samples and appropriate controls were incubated for 0, 10, 30, 60, and 120 min, prior to addition of ATP and peptide substrate (sequence HHASPRK, single-letter amino acid code), to initiate the kinase reaction. […]
(§1) CDK2/cyclin A (200 µM) was incubated overnight with 1 mM inhibitor or DMSO, and then dialysed for 8 h with regular replacement of dialysis buffer into HEPES-buffered saline (50 mM HEPES, pH 7.5, 250 mM NaCl, 0.02% MTG). […] Reactions were stopped by addition of SDS-PAGE loading buffer and analyzed by SDS-PAGE. […]

CDK2^K89V/cyclin A = molecular target: T1, CDK2^K89V/cyclin A (Homo sapiens, UniProt P24941, K89V); assay: Bandshift kinase assay after incubation and dialysis, mutant; assay type: biochemical
T1 construct: GST (N, cleaved yes); made in house; host or cells: Escherichia coli; phosphorylated in vitro by GST-CAK
Experimental: The bandshift experiment was repeated after incubating CDK2^K88E/cyclin A and CDK2^K89V/cyclin A with NU6300, NU6310, or DMSO followed by dialysis to remove unbound inhibitor (Figure S2G).
Figure S2, Related to Figure 3. Identification of the site of CDK2 modification by NU6300. (A-G) Single site CDK2 mutants CDK2D86A, CDK2K88E, and CDK2K89V identify the site of CDK2 modification by NU6300. These mutations change the CDK2 sequence to that of CDK7 and are known not to disrupt the CDK2 fold. Mass spectra of CDK2 mutants: […]
(G) Protein kinase activity of authentic CDK2 and single site CDK2 mutants following incubation with NU6300 or NU6310. Samples were taken at the indicated number of minutes after initiation of the reaction. Note that compared to authentic CDK2, the single site Lys88 and Lys89 mutants have a slower rate of reaction (Compare LHS panels). This drop in activity was expected because whereas the wild type protein was produced by co-expression with S. cerevisiae […]
the mutant proteins were activated by S. cerevisiae CAK1 phosphorylation in vitro– a relatively inefficient process as judged from the results of ESI-MS (Table S1). (H) NU6300 […]
NU6300 carbon atoms are coloured green. Rb, retinoblastoma protein, Phospho-Rb, […]
Protein expression and purification
Site-directed mutagenesis of CDK2 was performed using the QuikChange II kit (Stratagene) following the manufacturer’s instructions and verified by DNA sequencing.
Wild-type CDK2 phosphorylated at Thr160, untagged human cyclin A2 (residues 174-432), S. cerevisiae GST–CAK, GST–3C-protease and GST–pRb (residues 792–928) were expressed and purified as previously described (Brown et al., 1999a; Brown et al., 1999b; Welburn and Endicott, 2005). […]
as §1

| SMILES | CDK2 activity against Rb after incubation with inhibitor and dialysis (CDK2-Cyclin A) | CDK2 activity against Rb after incubation with inhibitor and dialysis (CDK2^K89V/cyclin A) |
| --- | --- | --- |
| C=CS(=O)(=O)c1ccc(Nc2nc(OCC3CCCCC3)c3nc[nH]c3n2)cc1 [NU6300, 6-(cyclohexylmethoxy)-N-(4-(vinylsulfonyl)phenyl)-9H-purin-2-amine] | not recovered; also recorded: did not | recovered activity |
| CCS(=O)(=O)c1ccc(Nc2nc(OCC3CCCCC3)c3nc[nH]c3n2)cc1 [NU6310, 6-(cyclohexylmethoxy)-N-(4-(ethylsulfonyl)phenyl)-9H-purin-2-amine] | could phosphorylate Rb; also recorded: recovered their activity | recovered their activity |
